According to a compilation of properties of binary mixtures (doi:10.1007/s10973-015-5205-9):

Assay: xn = mol fraction of the nth substance listed
Conditions: 100 kPa

CC[n+]1ccn(C)c1.F[B-](F)(F)F + CCOCCO
x2 = 0
Conditions | speed of sound [m/s]
298.15 K | 1620.3
318.15 K | 1573.8
328.15 K | 1550.9

CCOCCO + CC[n+]1ccn(C)c1.F[B-](F)(F)F
speed of sound [m/s]
Conditions | 298.15 K | 308.15 K | 318.15 K | 328.15 K
x1 = 0.0466 | 1614.9 | 1591.3 | 1568 | 1545.2
x1 = 0.0981 | 1607.6 | 1583.8 | 1560.2 | 1537.4
x1 = 0.1487 | – | 1575 | 1551.2 | 1528.2
x1 = 0.1973 | 1589.7 | 1565.3 | – | 1517.9
x1 = 0.3049 | 1564.7 | 1539.7 | – | 1490.7
x1 = 0.4112 | 1535 | 1509.2 | 1483.5 | 1458.2
x1 = 0.4953 | 1508.4 | – | 1455.3 | 1428.8
x1 = 0.5705 | 1482.4 | 1455 | 1427.6 | –
x1 = 0.696 | 1435 | 1406 | 1376.9 | 1347.7
x1 = 0.7952 | 1394.4 | 1363.9 | – | 1302.7
x1 = 0.8411 | 1374.8 | 1343.6 | 1311.9 | –
x1 = 0.8698 | 1362.4 | – | 1298.3 | 1267.2
x1 = 0.9487 | 1327.3 | 1294 | 1259.9 | 1228.2
x1 = 1 | 1304 | 1269.5 | 1234.1 | 1202.2
